The values that follow come from US7601716B2, “Pyridopyrazines and derivatives thereof as ALK and c-Met inhibitors” (Cephalon, Inc., priority 2006, dated 2009).

Data set [1] has as its target baculovirus-expressed ALK (Homo sapiens, UniProt Q9UM73). Nature of the data set: ALK Kinase Assay (ELISA/TRF, PLC-γ substrate). Note: 1 µM ATP (Km level). The class given is biochemical. The note with it: read-out: ALK Kinase Inhibition (IC50). An outline of the steps:
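Plates coated with GST–PLC-γ fusion substrate (10 μg/mL in TBS); reaction started with 30 ng/ml ALK, run 15 minutes at 37° C. Phosphotyrosine detected by Eu-N1 PT66 antibody (1 hour, 37° C) and time-resolved fluorescence after enhancement. IC50 from sigmoidal variable-slope fit of percent inhibition versus log concentration.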
For orientation: In an ELISA, binding on a coated surface is turned into a signal by an enzyme label.

For data set [2], the target named is T1, c-Met (cytoplasmic domain) (Homo sapiens, UniProt P08581).
T1 construct: Reactions were initiated with 30 ng/mL c-Met (cytoplasmic domain, Invitrogen Corporation #PV3143); purchased Invitrogen Corporation PV3143
Nature of the data set: c-Met Kinase Assay (ELISA/TRF, PLC-γ substrate). The class given is biochemical. The note with it: 3 μM ATP (Km level); read-out: c-Met Kinase Inhibition (IC50). An outline of the steps: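 c-Met cytoplasmic domain (30 ng/mL) phosphorylates plate-coated GST–PLC-γ for 15 min at 37 °C. Phosphotyrosine detected with Eu-labeled PT66 antibody by time-resolved fluorescence. IC50 from variable-slope sigmoidal fit of % inhibition vs log concentration.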

T1 sequence (P08581 956-1390 limits assumed): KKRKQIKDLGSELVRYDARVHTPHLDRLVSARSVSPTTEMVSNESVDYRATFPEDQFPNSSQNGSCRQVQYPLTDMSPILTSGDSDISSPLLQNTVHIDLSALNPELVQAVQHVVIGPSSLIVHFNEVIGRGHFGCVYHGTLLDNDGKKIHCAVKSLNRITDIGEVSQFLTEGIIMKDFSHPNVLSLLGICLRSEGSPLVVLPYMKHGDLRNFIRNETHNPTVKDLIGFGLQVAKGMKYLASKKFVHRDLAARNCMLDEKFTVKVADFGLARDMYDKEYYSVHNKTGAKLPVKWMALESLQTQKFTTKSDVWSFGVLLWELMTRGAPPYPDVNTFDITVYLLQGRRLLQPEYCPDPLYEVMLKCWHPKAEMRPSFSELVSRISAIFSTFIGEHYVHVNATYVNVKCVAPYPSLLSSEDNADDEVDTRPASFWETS
Sequence of baculovirus-expressed ALK (Q9UM73 19-1620): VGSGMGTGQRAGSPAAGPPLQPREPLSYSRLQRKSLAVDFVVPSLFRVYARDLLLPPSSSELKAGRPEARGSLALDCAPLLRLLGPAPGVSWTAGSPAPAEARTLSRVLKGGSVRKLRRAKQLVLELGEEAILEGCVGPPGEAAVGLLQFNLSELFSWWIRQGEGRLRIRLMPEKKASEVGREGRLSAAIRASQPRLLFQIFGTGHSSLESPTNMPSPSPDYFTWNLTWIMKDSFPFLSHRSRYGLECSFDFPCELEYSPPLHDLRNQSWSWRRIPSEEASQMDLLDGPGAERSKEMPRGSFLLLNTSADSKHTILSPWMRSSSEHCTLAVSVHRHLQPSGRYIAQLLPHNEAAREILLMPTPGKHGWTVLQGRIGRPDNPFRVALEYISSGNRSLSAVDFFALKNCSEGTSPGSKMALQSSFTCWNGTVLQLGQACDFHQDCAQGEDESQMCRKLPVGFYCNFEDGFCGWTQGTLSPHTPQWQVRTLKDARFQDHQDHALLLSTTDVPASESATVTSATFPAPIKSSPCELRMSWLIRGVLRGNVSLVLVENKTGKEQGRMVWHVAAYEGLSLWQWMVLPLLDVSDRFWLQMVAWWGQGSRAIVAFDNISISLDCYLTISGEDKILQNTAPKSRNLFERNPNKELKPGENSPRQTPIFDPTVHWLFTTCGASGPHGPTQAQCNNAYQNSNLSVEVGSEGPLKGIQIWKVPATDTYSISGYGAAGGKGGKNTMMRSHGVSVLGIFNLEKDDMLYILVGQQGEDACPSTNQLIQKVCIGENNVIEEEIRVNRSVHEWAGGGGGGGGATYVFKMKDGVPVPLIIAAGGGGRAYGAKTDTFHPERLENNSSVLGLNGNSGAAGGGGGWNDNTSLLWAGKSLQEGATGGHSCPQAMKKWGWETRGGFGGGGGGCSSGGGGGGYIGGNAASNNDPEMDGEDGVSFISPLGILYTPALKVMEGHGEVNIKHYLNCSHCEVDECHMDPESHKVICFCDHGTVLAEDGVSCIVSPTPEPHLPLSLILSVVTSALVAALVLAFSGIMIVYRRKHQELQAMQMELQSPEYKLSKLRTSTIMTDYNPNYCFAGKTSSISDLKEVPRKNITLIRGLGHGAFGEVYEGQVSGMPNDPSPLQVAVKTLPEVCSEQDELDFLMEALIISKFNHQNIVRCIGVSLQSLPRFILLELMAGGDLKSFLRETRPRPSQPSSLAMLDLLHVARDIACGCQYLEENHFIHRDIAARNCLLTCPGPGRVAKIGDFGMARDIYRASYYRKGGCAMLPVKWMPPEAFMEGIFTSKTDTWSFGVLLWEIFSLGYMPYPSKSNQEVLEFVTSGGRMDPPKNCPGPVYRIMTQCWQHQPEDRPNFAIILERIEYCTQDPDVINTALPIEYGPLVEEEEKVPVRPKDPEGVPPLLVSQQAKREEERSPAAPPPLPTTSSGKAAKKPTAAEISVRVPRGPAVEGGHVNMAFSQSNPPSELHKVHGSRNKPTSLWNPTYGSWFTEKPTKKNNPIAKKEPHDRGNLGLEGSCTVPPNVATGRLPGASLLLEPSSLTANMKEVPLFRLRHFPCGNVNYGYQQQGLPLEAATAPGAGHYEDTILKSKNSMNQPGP

Molecule `O=C1CNc2ncc(I)cc2N1` [Example 2, 7-Iodo-3,4-dihydro-1H-pyrido[2,3-b]pyrazin-2-one] came in with a melting point of 81 °C. In data set [1], the IC50 was greater than 100 µM. In data set [2], the IC50 was greater than 100 µM.
With `CN1CCN(c2ccc(-c3cnc4c(c3)N(Cc3c(F)ccc(F)c3Cl)CC(=O)N4)cn2)CC1` [Example 437, 1-(2-Chloro-3,6-difluorobenzyl)-7-[6-(4-methylpiperazin-1-yl)pyridin-3-yl]-1,4-dihydro-2H-pyrido[2,3-b]pyrazin-3-one], the melting point is 235 to 236 °C (dec.). Moreover, the IC50 in data set [1] fell in the range of 0.1 to 1 µM. In addition, in data set [2], the IC50 was 1 to 10 µM.
On the same counts, the results for `CN1CCN(c2ccc(-c3cnc4c(c3)C(O)CCN4)cn2)CC1` (stereo not drawn) [Example 269, 6-[6-(4-Methyl-piperazin-1-yl)pyridin-3-yl]-1,2,3,4-tetrahydro-[1,8]naphthyridin-4-ol] are 124 to 128 °C, greater than 100 µM and 10 to 100 µM.
On the same counts, the results for `OC1CCNc2nc(Br)ccc21` (stereo not drawn) [Example 267, 7-bromo-1,2,3,4-tetrahydro-[1,8]naphthyridin-4-ol] are 130 to 131 °C, 10 to 100 µM and greater than 100 µM.
The matching figures for `O=C(O)c1cnc2c(c1)N(Cc1cc(F)ccc1F)CCN2` [Example 78, 1-(2,5-Difluorobenzyl)-1,2,3,4-tetrahydropyrido[2,3-b]pyrazine-7-carboxylic acid]: 231 °C (dec.), greater than 100 µM and greater than 100 µM.
Turning to `CCOC(=O)c1ccc(-c2cnc3c(c2)N(Cc2ccccc2OC(F)(F)F)CCN3)cc1` [Example 297, 4-{1-[2-(Trifluoromethoxy)benzyl]-1,2,3,4-tetrahydropyrido[2,3-b]pyrazin-7-yl}benzoic acid ethyl ester], the melting point is 153 °C. Also, the IC50 in data set [1] was 1 to 10 µM. Further, the IC50 in data set [2] is greater than 100 µM.
The matching figures for `O=C1CNc2ncc(I)cc2N1Cc1ccccc1OC(F)(F)F` [Example 294, 7-Iodo-1-[2-(trifluoromethoxy)benzyl]-3,4-dihydro-1H-pyrido[2,3-b]pyrazin-2-one]: 235 °C, 10 to 100 µM and 10 to 100 µM.
The matching figures for `N#Cc1ccc(-c2cnc3c(c2)N(Cc2ccccc2)C(=O)CN3)cn1` [Example 28, 5-(1-Benzyl-2-oxo-1,2,3,4-tetrahydropyrido[2,3-b]pyrazin-7-yl)pyridine-2-carbonitrile]: greater than 200 °C, greater than 100 µM and greater than 100 µM.
On the same counts, the results for `CCNC(=O)c1ccc(-c2cnc3c(c2)N(Cc2ccccc2)C(=O)CN3)cc1` [Example 27, 4-(1-Benzyl-2-oxo-1,2,3,4-tetrahydropyrido[2,3-b]pyrazin-7-yl)-N-ethyl-benzamide] are 195 °C, 10 to 100 µM and 10 to 100 µM.
`Fc1ccc(F)c(CN2CCNc3ncc(I)cc32)c1Cl` [Example 98, 1-(2-Chloro-3,6-difluorobenzyl)-7-iodo-1,2,3,4-tetrahydropyrido[2,3-b]pyrazine]: the melting point was 156 to 157 °C. Besides, in data set [1], the IC50 was in the range of 1 to 10 µM. Also, in data set [2], the IC50 is greater than 100 µM.
The matching figures for `O=C(O)c1ccc(-c2cnc3c(c2)N(Cc2ccccc2)CCN3)cc1` [Example 36, 4-(1-Benzyl-1,2,3,4-tetrahydropyrido[2,3-b]pyrazin-7-yl)benzoic acid]: greater than 300 °C, 0.1 to 1 µM and 1 to 10 µM.
On the same counts, the results for `CCOC(=O)c1ccc(-c2cnc3c(c2)N(Cc2cc(F)ccc2F)CCN3)cc1` [Example 63, 4-[1-(2,5-Difluorobenzyl)-1,2,3,4-tetrahydropyrido[2,3-b]pyrazin-7-yl]benzoic acid ethyl ester] are 173 to 174 °C, 0.1 to 1 µM and greater than 100 µM.
The matching figures for `N#Cc1ccc(-c2cnc3c(c2)N(Cc2cc(F)ccc2F)CCN3)cn1` [Example 71, 5-[1-(2,5-Difluorobenzyl)-1,2,3,4-tetrahydropyrido[2,3-b]pyrazin-7-yl]-pyridine-2-carbonitrile]: 200 °C (dec.), 0.1 to 1 µM and greater than 100 µM.
On to `O=C1CNc2ncc(-c3ccc(NS(=O)(=O)CCN4CCOCC4)cc3)cc2N1Cc1cc(F)ccc1F` [Example 50, 2-Morpholin-4-yl-ethanesulfonic acid{4-[1-(2,5-difluorobenzyl)-2-oxo-1,2,3,4-tetrahydropyrido[2,3-b]pyrazin-7-yl]phenyl}-amide], for which the melting point was found to be 225 °C. The IC50 in data set [1] was 0.1 to 1 µM. Further, the IC50 in data set [2] was greater than 100 µM.
Turning to `CCOC(=O)CNc1ncc(I)cc1[N+](=O)[O-]` [Example 1, (5-Iodo-3-nitro-pyridin-2-ylamino)-acetic acid ethyl ester], the melting point was 200 °C (dec.). The IC50 in data set [1] lay within 10 to 100 µM. Besides, in data set [2], the concentration for half-maximal inhibition (IC50) is 10 to 100 µM.
The molecule `Clc1cccc(Cl)c1CN1CCNc2ncc(I)cc21` [Example 162, 1-(2,6-Dichlorobenzyl)-7-iodo-1,2,3,4-tetrahydropyrido[2,3-b]pyrazine] came in with a melting point greater than 200 °C. The IC50 in data set [1] was in the range of 1 to 10 µM. Also, the IC50 in data set [2] lay in the range of 10 to 100 µM.
The matching figures for `NCC#Cc1cnc2c(c1)N(Cc1cc(Cl)ccc1Cl)CCN2` [Example 169, 3-[1-(2,5-Dichlorobenzyl)-1,2,3,4-tetrahydropyrido[2,3-b]pyrazin-7-yl]prop-2-ynylamine]: 183 °C, 0.1 to 1 µM and 10 to 100 µM.
On the same counts, the results for `Cc1noc(C)c1-c1cnc2c(c1)N(Cc1c(F)ccc(F)c1Cl)CCN2` [Example 103, 1-(2-Chloro-3,6-difluorobenzyl)-7-(3,5-dimethyl-isoxazol-4-yl)-1,2,3,4-tetrahydropyrido[2,3-b]pyrazine] are 215 to 216 °C, 0.1 to 1 µM and 10 to 100 µM.
On the same counts, the results for `O=C1CNc2ncc(I)cc2N1Cc1c(Cl)cccc1Cl` [Example 136, 1-(2,6-Dichlorobenzyl)-7-iodo-3,4-dihydro-1H-pyrido[2,3-b]pyrazin-2-one] are greater than 200 °C, greater than 100 µM and greater than 100 µM.
In the case of `CC(C)CCn1cc(-c2cnc3c(c2)N(Cc2c(F)ccc(F)c2Cl)CCN3)cn1` [Example 191, 1-(2-Chloro-3,6-difluorobenzyl)-7-[1-(3-methylbutyl)-1H-pyrazol-4-yl]-1,2,3,4-tetrahydropyrido[2,3-b]pyrazine], the melting point amounted to 134 °C. For the same molecule, the IC50 in data set [1] is 0.1 to 1 µM. In addition, the IC50 in data set [2] lay in the range of 0.1 to 1 µM.
With `CN1CCN(C(=O)c2ccc(-c3cnc4c(c3)N(Cc3cc(F)c(F)cc3F)C(=O)CN4)cc2)CC1` [Example 85, 7-[4-(4-Methylpiperazine-1-carbonyl)phenyl]-1-(2,4,5-trifluorobenzyl)-3,4-dihydro-1H-pyrido[2,3-b]pyrazin-2-one], the melting point amounted to 238 °C. The half-maximal inhibitory concentration (IC50) in data set [1] was in the range of 10 to 100 µM. Further, the IC50 in data set [2] was 10 to 100 µM.
Regarding `CN(C)CC#Cc1cnc2c(c1)N(Cc1cc(Cl)ccc1Cl)CCN2` [Example 173, {3-[1-(2,5-Dichlorobenzyl)-1,2,3,4-tetrahydropyrido[2,3-b]pyrazin-7-yl]prop-2-ynyl}-dimethylamine], the melting point was 168 °C. Besides, in data set [1], the IC50 is 1 to 10 µM. Besides, the IC50 in data set [2] lay within 1 to 10 µM.
`CCOC(=O)c1cncc(-c2cnc3c(c2)N(Cc2cc(F)ccc2F)CCN3)c1` [Example 73, 5-[1-(2,5-Difluorobenzyl)-1,2,3,4-tetrahydropyrido[2,3-b]pyrazin-7-yl]-nicotinic acid ethyl ester] came in with a melting point of 169 to 172 °C. Besides, the IC50 in data set [1] lay in the range of 0.1 to 1 µM. Besides, the IC50 in data set [2] was in the range of 10 to 100 µM.
Turning to `NC(=O)c1ccc(-c2cnc3c(c2)N(Cc2ccccc2)C(=O)CN3)cc1` [Example 23, 4-(1-Benzyl-2-oxo-1,2,3,4-tetrahydropyrido[2,3-b]pyrazin-7-yl)benzamide], the melting point was greater than 200 °C. Further, the IC50 in data set [1] was 1 to 10 µM. For the same molecule, in data set [2], the IC50 was 10 to 100 µM.
Take `CC(=O)Nc1ccc(-c2cnc3c(c2)N(Cc2cc(Cl)ccc2C(F)(F)F)CCN3)cc1` [Example 304, N-(4-{1-[5-Chloro-2-(trifluoromethyl)benzyl]-1,2,3,4-tetrahydropyrido[2,3-b]pyrazin-7-yl}phenyl)acetamide]: the melting point was found to be 244 °C. Also, the IC50 in data set [1] was in the range of 1 to 10 µM. Also, the half-inhibitory concentration (IC50) in data set [2] was greater than 100 µM.
The matching figures for `CCOC(=O)c1ccc(-c2cnc3c(c2)N(C(=O)c2ccccc2)CCN3)cc1` [Example 44, 4-(1-Benzoyl-1,2,3,4-tetrahydropyrido[2,3-b]pyrazin-7-yl)benzoic acid ethyl ester]: 177 to 178 °C, greater than 100 µM and 10 to 100 µM.
On the same counts, the results for `O=S1(=O)CCN(CC#Cc2cnc3c(c2)N(Cc2cc(Cl)ccc2Cl)CCN3)CC1` [Example 174, 1-(2,5-Dichlorobenzyl)-7-[3-(1,1-dioxo-1λ^6-thiomorpholin-4-yl)prop-1-ynyl]-1,2,3,4-tetrahydropyrido[2,3-b]pyrazine] are greater than 200 °C, 0.1 to 1 µM and 10 to 100 µM.

Usually melting point stands for the temperature, or range, at which the solid turns liquid. As usually defined, the IC50 is the concentration at which inhibition is half-maximal.
